Assay results from patent US10947252B2, “Inhibitors of KEAP1-Nrf2 protein-protein interaction” (Janssen Pharmaceutica NV, priority 2018, dated 2021).

What was measured:
[1] = target: Kelch domain of human KEAP1 (321-624 aa) (Homo sapiens (Human), UniProt Q14145); assay: KEAP1 KELCH ThermoFluor binding assay; conditions: KEAP Kelch […], 1,8-ANS, pH 7.0, average of results obtained, read-out: Tf Kd;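 further: Ligand-induced melting temperature shift of E. coli-expressed KEAP1 Kelch protein, Kd estimated from concentration-response curves of ΔTm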
[2] = test system: Glo-Response ARE-luc2P HEK293 cell line; assay: ARE luciferase reporter cell-based assay; conditions: average of results obtained;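 further: luciferase signal tracks Nrf2 activation of the ARE once compounds disrupt KEAP1-Nrf2 binding, read with One-Glo reagent, DMSO serving as low control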

Kelch domain of human KEAP1 (321-624 aa), sequence (Q14145 321-624): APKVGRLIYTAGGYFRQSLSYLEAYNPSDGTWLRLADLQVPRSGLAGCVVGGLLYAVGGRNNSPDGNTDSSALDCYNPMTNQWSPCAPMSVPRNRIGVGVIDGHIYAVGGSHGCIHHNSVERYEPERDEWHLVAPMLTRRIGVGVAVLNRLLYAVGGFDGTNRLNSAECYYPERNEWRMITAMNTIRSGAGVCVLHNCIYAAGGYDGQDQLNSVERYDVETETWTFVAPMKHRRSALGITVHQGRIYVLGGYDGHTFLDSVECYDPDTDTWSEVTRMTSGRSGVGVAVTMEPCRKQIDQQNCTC

Kd [1] [µM] | Structure (SMILES) | EC50 ([2]; Homo sapiens, HEK293, 24 h) [µM] | EC50 ([2]; 24 hours) [µM]
0.0012 | Cc1ccc([C@@H](CC(=O)O)c2ccn3c(C4CC4)nnc3c2C)cc1CN1C[C@H]2CCCN2c2ncccc2S1(=O)=O (single isomer, unassigned) [Example 169, (*R)-3-(3-Cyclopropyl-8-methyl-[1,2,4]triazolo[4,3-a]pyridin-7-yl)-3-(3-(((R)-5,5-dioxido-7a,8,9,10-tetrahydropyrido[2,3-f]pyrrolo[2,1-d][1,2,5]thiadiazepin-6(7H)-yl)methyl)-4-methylphenyl)propanoic Acid] | 5.91 | 
< 0.001 | Cc1ccc([C@H](CC(=O)O)c2ccc3c(nnn3CC3CC3)c2C(F)F)cc1CN1C[C@H]2CCCCN2c2ncccc2S1(=O)=O (single isomer, unassigned) [Example 170, (*S)-3-(1-(Cyclopropylmethyl)-4-(difluoromethyl)-1H-benzo[d][1,2,3]triazol-5-yl)-3-(3-(((*R)-5,5-dioxido-7,7a,8,9,10,11-hexahydro-6H-dipyrido[2,1-d:2′,3′-f][1,2,5]thiadiazepin-6-yl)methyl)-4-methylphenyl)propanoic Acid] | 0.11 | 
< 0.001 | Cc1ccc([C@H](CC(=O)O)c2ccc3c(nnn3CC3CC3)c2C(F)F)cc1CN1C[C@@H]2CCCCN2c2ncccc2S1(=O)=O (single isomer, unassigned) [Example 172, (*S)-3-(1-(Cyclopropylmethyl)-4-(difluoromethyl)-1H-benzo[d][1,2,3]triazol-5-yl)-3-(3-(((*S)-5,5-dioxido-7,7a,8,9,10,11-hexahydro-6H-dipyrido[2,1-d:2′,3′-f][1,2,5]thiadiazepin-6-yl)methyl)-4-methylphenyl)propanoic Acid] | 0.019 | 
< 0.001 | CC[C@@H]1CN(Cc2nc([C@@H](CC(=O)O)c3ccc4c(nnn4C4CC4)c3C)ccc2C)S(=O)(=O)c2cccnc2O1 (single isomer, unassigned) [Example 175, (*S)-3-(1-Cyclopropyl-4-methyl-1H-benzo[d][1,2,3]triazol-5-yl)-3-(6-(((R)-4-ethyl-1,1-dioxido-3,4-dihydro-2H-pyrido[2,3-b][1,4,5]oxathiazepin-2-yl)methyl)-5-methylpyridin-2-yl)propanoic Acid] | 0.0053 | 
< 0.001 | CC[C@@H]1CN(Cc2nc([C@H](CC(=O)O)c3ccc4c(nnn4C4CC4)c3C)ccc2C)S(=O)(=O)c2cccnc2O1 (single isomer, unassigned) [Example 176, (*R)-3-(1-Cyclopropyl-4-methyl-1H-benzo[d][1,2,3]triazol-5-yl)-3-(6-(((R)-4-ethyl-1,1-dioxido-3,4-dihydro-2H-pyrido[2,3-b][1,4,5]oxathiazepin-2-yl)methyl)-5-methylpyridin-2-yl)propanoic Acid] | 0.031 | 

More lines, now with the values behind:

Structure (SMILES) | Kd [1] [µM] | EC50 ([2]; Homo sapiens, HEK293, 24 h) [µM] | EC50 ([2]; 24 hours) [µM]
Cc1ccc([C@H](c2ccn3c(C(F)(F)F)nnc3c2C)C(C)(C)C(=O)O)cc1CN1CC2(CCOCC2)Oc2nc(N[C@H](C)C(C)(C)O)c(C)cc2S1(=O)=O (single isomer, unassigned) [Example 124, (*R)-3-(3-((7′-(((R)-3-Hydroxy-3-methylbutan-2-yl)amino)-8′-methyl-1′,1′-dioxido-2,3,5,6-tetrahydrospiro[pyran-4,4′-pyrido[2,3-b][1,4,5]oxathiazepin]-2′(3′H)-yl)methyl)-4-methylphenyl)-2,2-dimethyl-3-(8-methyl-3-(trifluoromethyl)-[1,2,4]triazolo[4,3-a]pyridin-7-yl)propanoic Acid] | < 0.001 | 0.0288 | 
Cc1ccc([C@@H](c2ccn3c(C(F)(F)F)nnc3c2C)C(C)(C)C(=O)O)cc1CN1CC2(CCOCC2)Oc2nc(OCCN3CCCCC3)c(C)cc2S1(=O)=O (single isomer, unassigned) [Example 126, 2,2-Dimethyl-3-(4-methyl-3-((8′-methyl-1′,1′-dioxido3-(3-((7′-(((*S)-4-hydroxybutan-2-yl)amino)-8′-methyl-1′,1′-dioxido-7′-(2-(piperidin-1-yl)ethoxy)-2,3,5,6-tetrahydrospiro[pyran-4,4′-pyrido[2,3-b][1,4,5]oxathiazepin]-2′(3′H)-yl)methyl)phenyl)-3-(8-methyl-3-(trifluoromethyl)-[1,2,4]triazolo[4,3-a]pyridine-7-yl)propanoic Acid] | < 0.001 | 0.006 | 
Cc1ccc([C@H](c2ccn3c(C(F)(F)F)nnc3c2C)C(C)(C)C(=O)O)cc1CN1CC2(CCOCC2)Oc2nc(CCC(=O)NCCO)ccc2S1(=O)=O (single isomer, unassigned) [Example 128, (*R)-3-(3-((7′-(3-((2-Hydroxyethyl)amino)-3-oxopropyl)-1′,1′-dioxido-2,3,5,6-tetrahydrospiro[pyran-4,4′-pyrido[2,3-b][1,4,5]oxathiazepin]-2′(3′H)-yl)methyl)-4-methylphenyl)-2,2-dimethyl-3-(8-methyl-3-(trifluoromethyl)-[1,2,4]triazolo[4,3-a]pyridine-7-yl)propanoic Acid] | < 0.001 | 0.308 | 
CCn1nnc2c(C)c([C@@H](CC(=O)O)c3ccc(C)c(CN4C[C@@H]5CCCN5c5ncccc5S4(=O)=O)c3)ccc21 (single isomer, unassigned) [Example 156, (*S)-3-(3-(((S)-5,5-Dioxido-7a,8,9,10-tetrahydropyrido[2,3-f]pyrrolo[2,1-d][1,2,5]thiadiazepin-6(7H)-yl)methyl)-4-methylphenyl)-3-(1-ethyl-4-methyl-1H-benzo[d][1,2,3]triazol-5-yl)propanoic Acid] | 0.0021 | 0.0036 | 
CCn1nnc2c(C)c([C@H](CC(=O)O)c3ccc(C)c(CN4C[C@@H]5CCCN5c5ncccc5S4(=O)=O)c3)ccc21 (single isomer, unassigned) [Example 157, (*R)-3-(3-(((S)-5,5-Dioxido-7a,8,9,10-tetrahydropyrido[2,3-f]pyrrolo[2,1-d][1,2,5]thiadiazepin-6(7H)-yl)methyl)-4-methylphenyl)-3-(1-ethyl-4-methyl-1H-benzo[d][1,2,3]triazol-5-yl)propanoic Acid] | ~0.0032 | 0.062 | 
Cc1ccc([C@H](CC(=O)O)c2ccn3c(C)nnc3c2)cc1CN1C[C@H]2CCCN2c2ncccc2S1(=O)=O (single isomer, unassigned) [Example 163, (*S)-3-(3-(((R)-5,5-Dioxido-7a,8,9,10-tetrahydropyrido[2,3-f]pyrrolo[2,1-d][1,2,5]thiadiazepin-6(7H)-yl)methyl)-4-methylphenyl)-3-(3-methyl-[1,2,4]triazolo[4,3-a]pyridin-7-yl)propanoic Acid] | < 0.001 | 2.75 | 
Cc1ccc([C@@H](CC(=O)O)c2ccn3c(C)nnc3c2)cc1CN1C[C@H]2CCCN2c2ncccc2S1(=O)=O (single isomer, unassigned) [Example 164, (*R)-3-(3-(((R)-5,5-Dioxido-7a,8,9,10-tetrahydropyrido[2,3-f]pyrrolo[2,1-d][1,2,5]thiadiazepin-6(7H)-yl)methyl)-4-methylphenyl)-3-(3-methyl-[1,2,4]triazolo[4,3-a]pyridin-7-yl)propanoic Acid] | 0.0023 | 11.2 | 
Cc1ccc([C@H](CC(=O)O)c2ccn3c(C)nnc3c2)cc1CN1C[C@H]2CCCN2c2ccccc2S1(=O)=O (single isomer, unassigned) [Example 165, (*S)-3-(3-(((R)-5,5-Dioxido-7a,8,9,10-tetrahydrobenzo[f]pyrrolo[2,1-d][1,2,5]thiadiazepin-6(7H)-yl)methyl)-4-methylphenyl)-3-(3-methyl-[1,2,4]triazolo[4,3-a]pyridin-7-yl)propanoic Acid] | < 0.001 | 1.49 | 
Cc1ccc([C@@H](CC(=O)O)c2ccn3c(C)nnc3c2)cc1CN1C[C@H]2CCCN2c2ccccc2S1(=O)=O (single isomer, unassigned) [Example 166, (*R)-3-(3-(((R)-5,5-Dioxido-7a,8,9,10-tetrahydrobenzo[f]pyrrolo[2,1-d][1,2,5]thiadiazepin-6(7H)-yl)methyl)-4-methylphenyl)-3-(3-methyl-[1,2,4]triazolo[4,3-a]pyridin-7-yl)propanoic Acid] | < 0.001 | 7.02 | 
Cc1ccc([C@H](CC(=O)O)c2ccn3c(C4CC4)nnc3c2C)cc1CN1C[C@H]2CCCN2c2ncccc2S1(=O)=O (single isomer, unassigned) [Example 168, (*S)-3-(3-Cyclopropyl-8-methyl-[1,2,4]triazolo[4,3-a]pyridin-7-yl)-3-(3-(((R)-5,5-dioxido-7a,8,9,10-tetrahydropyrido[2,3-f]pyrrolo[2,1-d][1,2,5]thiadiazepin-6(7H)-yl)methyl)-4-methylphenyl)propanoic Acid] | < 0.001 | 0.48 | 
Cc1ccc([C@@H](CC(=O)O)c2ccc3c(nnn3CC3CC3)c2C(F)F)cc1CN1C[C@H]2CCCCN2c2ncccc2S1(=O)=O (single isomer, unassigned) [Example 171, (*R)-3-(1-(Cyclopropylmethyl)-4-(difluoromethyl)-1H-benzo[d][1,2,3]triazol-5-yl)-3-(3-(((*R)-5,5-dioxido-7,7a,8,9,10,11-hexahydro-6H-dipyrido[2,1-d:2′,3′-f][1,2,5]thiadiazepin-6-yl)methyl)-4-methylphenyl)propanoic Acid] | < 0.001 |  | 0.088
Cc1ccc([C@@H](CC(=O)O)c2ccc3c(nnn3CC3CC3)c2C(F)F)cc1CN1C[C@H]2CCCCN2c2ncccc2S1(=O)=O (single isomer, unassigned) [Example 173, (*R)-3-(1-(Cyclopropylmethyl)-4-(difluoromethyl)-1H-benzo[d][1,2,3]triazol-5-yl)-3-(3-(((R)-5,5-dioxido-7,7a,8,9,10,11-hexahydro-6H-dipyrido[2,1-d:2′,3′-f][1,2,5]thiadiazepin-6-yl)methyl)-4-methylphenyl)propanoic Acid] | 0.004 |  | 0.54
